Measurements from PubChem BioAssay (NCI).
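Cultured in 96-well plates, cells were exposed to test compound for 48 hours across five concentrations. TGI: total growth inhibition.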

Key:
Assay in all cases: DTP human tumour cell line panel, 48 h
786-0 renal = tested on: 786-0 renal
A498 renal = tested on: A498 renal
A549 NSCLC = tested on: A549 NSCLC
ACHN renal = tested on: ACHN renal
BT-549 breast = tested on: BT-549 breast
CAKI-1 renal = tested on: CAKI-1 renal
CCRF-CEM leukemia = tested on: CCRF-CEM leukemia
COLO 205 colon = tested on: COLO 205 colon
DU-145 prostate = tested on: DU-145 prostate
EKVX NSCLC = tested on: EKVX NSCLC
HCC-2998 colon = tested on: HCC-2998 colon
HCT-116 colon = tested on: HCT-116 colon
HCT-15 colon = tested on: HCT-15 colon
HL-60(TB) leukemia = tested on: HL-60(TB) leukemia
HOP-62 NSCLC = tested on: HOP-62 NSCLC
HOP-92 NSCLC = tested on: HOP-92 NSCLC
HS 578T breast = tested on: HS 578T breast
HT29 colon = tested on: HT29 colon
IGROV1 ovarian = tested on: IGROV1 ovarian
K-562 leukemia = tested on: K-562 leukemia
KM12 colon = tested on: KM12 colon
LOX IMVI melanoma = tested on: LOX IMVI melanoma
M14 melanoma = tested on: M14 melanoma
MALME-3M melanoma = tested on: MALME-3M melanoma
MCF7 breast = tested on: MCF7 breast
MDA-MB-231 breast = tested on: MDA-MB-231 breast
MDA-MB-435 = tested on: MDA-MB-435
MDA-N = tested on: MDA-N
MOLT-4 leukemia = tested on: MOLT-4 leukemia
NCI-H226 lung = tested on: NCI-H226 lung
NCI-H23 lung = tested on: NCI-H23 lung
NCI-H460 lung = tested on: NCI-H460 lung
NCI-H522 lung = tested on: NCI-H522 lung
NCI/ADR-RES ovarian = tested on: NCI/ADR-RES ovarian
OVCAR-3 ovarian = tested on: OVCAR-3 ovarian
OVCAR-4 ovarian = tested on: OVCAR-4 ovarian
OVCAR-5 ovarian = tested on: OVCAR-5 ovarian
OVCAR-8 ovarian = tested on: OVCAR-8 ovarian
PC-3 prostate = tested on: PC-3 prostate
RPMI-8226 leukemia = tested on: RPMI-8226 leukemia
RXF 393 renal = tested on: RXF 393 renal
SF-268 CNS = tested on: SF-268 CNS
SF-295 CNS = tested on: SF-295 CNS
SF-539 CNS = tested on: SF-539 CNS
SK-MEL-2 melanoma = tested on: SK-MEL-2 melanoma
SK-MEL-28 melanoma = tested on: SK-MEL-28 melanoma
SK-MEL-5 melanoma = tested on: SK-MEL-5 melanoma
SK-OV-3 ovarian = tested on: SK-OV-3 ovarian
SN12C renal = tested on: SN12C renal
SNB-19 CNS = tested on: SNB-19 CNS
SNB-75 CNS = tested on: SNB-75 CNS
SR leukemia = tested on: SR leukemia
SW-620 colon = tested on: SW-620 colon
T-47D breast = tested on: T-47D breast
TK-10 renal = tested on: TK-10 renal
U251 CNS = tested on: U251 CNS
UACC-257 melanoma = tested on: UACC-257 melanoma
UACC-62 melanoma = tested on: UACC-62 melanoma
UO-31 renal = tested on: UO-31 renal
DLD-1 colon = tested on: DLD-1 colon
DMS 273 small cell lung = tested on: DMS 273 small cell lung
LXFL 529 NSCLC = tested on: LXFL 529 NSCLC
M19-MEL melanoma = tested on: M19-MEL melanoma
SNB-78 CNS = tested on: SNB-78 CNS

For `[N-]=[N+]=Nc1ccc2c(c1)Sc1ccccc1N2CCCCN1CCN(Cc2ccc(C(=O)c3ccccc3)cc2)CC1`, the TGI (786-0 renal) was over 100 µM, the TGI (A498 renal) was over 29 µM and the TGI (A549 NSCLC) was over 100 µM. For the same compound, the TGI (ACHN renal) was over 100 µM, the TGI (BT-549 breast) was over 66.1 µM and the TGI (CAKI-1 renal) was over 65.4 µM. The TGI (CCRF-CEM leukemia) was over 100 µM, the TGI (COLO 205 colon) was 3.55 µM and the TGI (DU-145 prostate) was over 100 µM. For the same compound, the TGI (EKVX NSCLC) was over 100 µM, the TGI (HCC-2998 colon) was 3.86 µM and the TGI (HCT-116 colon) was over 56.8 µM. It also gave a TGI (HCT-15 colon) of over 100 µM, a TGI (HL-60(TB) leukemia) of 10.1 µM and a TGI (HOP-62 NSCLC) of over 100 µM. The TGI (HOP-92 NSCLC) was 11.7 µM, the TGI (HS 578T breast) was over 100 µM and the TGI (HT29 colon) was 3.53 µM. For the same compound, the TGI (IGROV1 ovarian) was over 100 µM, the TGI (K-562 leukemia) was over 100 µM and the TGI (KM12 colon) was over 100 µM. For the same compound, the TGI (LOX IMVI melanoma) was 3.56 µM, the TGI (M14 melanoma) was 3.95 µM and the TGI (MALME-3M melanoma) was 4.28 µM. It also gave a TGI (MCF7 breast) of over 23.3 µM, a TGI (MDA-MB-231 breast) of 33 µM and a TGI (MDA-MB-435) of over 100 µM. It also gave a TGI (MDA-N) of over 100 µM, a TGI (MOLT-4 leukemia) of over 100 µM and a TGI (NCI-H226 lung) of over 100 µM. It also gave a TGI (NCI-H23 lung) of over 80.8 µM, a TGI (NCI-H460 lung) of over 100 µM and a TGI (NCI-H522 lung) of 4.43 µM. For the same compound, the TGI (NCI/ADR-RES ovarian) was over 100 µM, the TGI (OVCAR-3 ovarian) was over 100 µM and the TGI (OVCAR-4 ovarian) was over 100 µM. It also gave a TGI (OVCAR-5 ovarian) of over 100 µM, a TGI (OVCAR-8 ovarian) of over 36.4 µM and a TGI (PC-3 prostate) of over 100 µM. It also gave a TGI (RPMI-8226 leukemia) of over 100 µM, a TGI (RXF 393 renal) of 5.37 µM and a TGI (SF-268 CNS) of over 100 µM. For the same compound, the TGI (SF-295 CNS) was over 100 µM, the TGI (SF-539 CNS) was 23.1 µM and the TGI (SK-MEL-2 melanoma) was 6.86 µM. The TGI (SK-MEL-28 melanoma) was 3.57 µM, the TGI (SK-MEL-5 melanoma) was 4.09 µM and the TGI (SK-OV-3 ovarian) was over 100 µM. It also gave a TGI (SN12C renal) of over 100 µM, a TGI (SNB-19 CNS) of over 100 µM and a TGI (SNB-75 CNS) of over 100 µM. It also gave a TGI (SR leukemia) of over 24.3 µM, a TGI (SW-620 colon) of over 100 µM and a TGI (T-47D breast) of 22.7 µM. It also gave a TGI (TK-10 renal) of over 96.2 µM, a TGI (U251 CNS) of over 100 µM and a TGI (UACC-257 melanoma) of 4.41 µM. For the same compound, the TGI (UACC-62 melanoma) was 6.1 µM and the TGI (UO-31 renal) was over 27.9 µM.
For `CC(=O)NC1=C(C)C(=O)c2c(nc3n2CCC3OC(=O)CCl)C1=O` (stereo unspecified), the TGI (786-0 renal) was 21.6 µM, the TGI (A498 renal) was 27.4 µM and the TGI (A549 NSCLC) was 26 µM. The TGI (ACHN renal) was 42.5 µM, the TGI (CAKI-1 renal) was 35.2 µM and the TGI (CCRF-CEM leukemia) was 4.52 µM. The TGI (COLO 205 colon) was 34.7 µM, the TGI (DLD-1 colon) was 29.7 µM and the TGI (DMS 273 small cell lung) was 33.6 µM. It also gave a TGI (EKVX NSCLC) of 20.6 µM, a TGI (HCC-2998 colon) of 25.7 µM and a TGI (HCT-116 colon) of 5.57 µM. It also gave a TGI (HL-60(TB) leukemia) of 8.58 µM, a TGI (HOP-62 NSCLC) of 31.6 µM and a TGI (HOP-92 NSCLC) of 5.15 µM. The TGI (HT29 colon) was 30.3 µM, the TGI (IGROV1 ovarian) was 25.2 µM and the TGI (K-562 leukemia) was 5.73 µM. It also gave a TGI (KM12 colon) of 29.5 µM, a TGI (LOX IMVI melanoma) of 16.8 µM and a TGI (LXFL 529 NSCLC) of 5.12 µM. For the same compound, the TGI (M14 melanoma) was 32.2 µM, the TGI (M19-MEL melanoma) was 26.3 µM and the TGI (MALME-3M melanoma) was 16.6 µM. The TGI (MOLT-4 leukemia) was 4.48 µM, the TGI (NCI-H226 lung) was 7.01 µM and the TGI (NCI-H23 lung) was 26.1 µM. The TGI (NCI-H460 lung) was 56.2 µM, the TGI (NCI-H522 lung) was 11.9 µM and the TGI (OVCAR-3 ovarian) was 3.68 µM. It also gave a TGI (OVCAR-4 ovarian) of 4.19 µM, a TGI (OVCAR-5 ovarian) of 25.5 µM and a TGI (OVCAR-8 ovarian) of 16.6 µM. The TGI (RPMI-8226 leukemia) was over 100 µM, the TGI (RXF 393 renal) was 18.1 µM and the TGI (SF-268 CNS) was 21.9 µM. For the same compound, the TGI (SF-295 CNS) was 29.9 µM, the TGI (SF-539 CNS) was 6.47 µM and the TGI (SK-MEL-2 melanoma) was 10.2 µM. For the same compound, the TGI (SK-MEL-28 melanoma) was 31.4 µM, the TGI (SK-MEL-5 melanoma) was 25.4 µM and the TGI (SK-OV-3 ovarian) was 37.9 µM. For the same compound, the TGI (SN12C renal) was 24.1 µM, the TGI (SNB-19 CNS) was 32.1 µM and the TGI (SNB-75 CNS) was 30.1 µM. For the same compound, the TGI (SNB-78 CNS) was 6.5 µM, the TGI (SR leukemia) was over 100 µM and the TGI (SW-620 colon) was 22.6 µM. For the same compound, the TGI (TK-10 renal) was 43.1 µM, the TGI (U251 CNS) was 11.8 µM and the TGI (UACC-257 melanoma) was 25.5 µM. For the same compound, the TGI (UACC-62 melanoma) was 6.33 µM and the TGI (UO-31 renal) was 31.9 µM.
With `C=C(C)C(CC=C(C)C)Cc1c(O)cc(OC)c2c1OC(c1ccc(O)cc1O)C(O)C2=O` (stereo unspecified) the TGI (786-0 renal) was 32.3 µM, the TGI (A498 renal) was 30.7 µM and the TGI (A549 NSCLC) was 39.4 µM. The TGI (ACHN renal) was 43.2 µM, the TGI (BT-549 breast) was 28.5 µM and the TGI (CAKI-1 renal) was 26.6 µM. For the same compound, the TGI (CCRF-CEM leukemia) was over 100 µM, the TGI (COLO 205 colon) was 30 µM and the TGI (DU-145 prostate) was 32.4 µM. It also gave a TGI (EKVX NSCLC) of 31.1 µM, a TGI (HCC-2998 colon) of 30.6 µM and a TGI (HCT-116 colon) of 34.5 µM. The TGI (HCT-15 colon) was 31.1 µM, the TGI (HL-60(TB) leukemia) was over 100 µM and the TGI (HOP-62 NSCLC) was 31 µM. The TGI (HOP-92 NSCLC) was 28 µM, the TGI (HS 578T breast) was 79.4 µM and the TGI (HT29 colon) was 38.2 µM. For the same compound, the TGI (IGROV1 ovarian) was 28.1 µM, the TGI (K-562 leukemia) was over 100 µM and the TGI (KM12 colon) was 24.6 µM. The TGI (LOX IMVI melanoma) was 36.1 µM, the TGI (M14 melanoma) was 36.5 µM and the TGI (MALME-3M melanoma) was 31.8 µM. The TGI (MCF7 breast) was 27 µM, the TGI (MDA-MB-231 breast) was 34.1 µM and the TGI (MDA-MB-435) was 35.9 µM. The TGI (MDA-N) was 28.1 µM, the TGI (MOLT-4 leukemia) was over 100 µM and the TGI (NCI-H226 lung) was 44.7 µM. The TGI (NCI-H23 lung) was 33.6 µM, the TGI (NCI-H460 lung) was 33.9 µM and the TGI (NCI-H522 lung) was 34.2 µM. The TGI (NCI/ADR-RES ovarian) was 55.8 µM, the TGI (OVCAR-3 ovarian) was 34.8 µM and the TGI (OVCAR-4 ovarian) was 38.4 µM. The TGI (OVCAR-5 ovarian) was 32.4 µM, the TGI (OVCAR-8 ovarian) was 31.2 µM and the TGI (PC-3 prostate) was 26.3 µM. For the same compound, the TGI (RPMI-8226 leukemia) was over 100 µM, the TGI (RXF 393 renal) was 43.6 µM and the TGI (SF-268 CNS) was 61.1 µM. The TGI (SF-295 CNS) was 28.2 µM, the TGI (SF-539 CNS) was 31.4 µM and the TGI (SK-MEL-2 melanoma) was 34.7 µM. For the same compound, the TGI (SK-MEL-28 melanoma) was 56.2 µM, the TGI (SK-MEL-5 melanoma) was 33.1 µM and the TGI (SK-OV-3 ovarian) was 30.5 µM. For the same compound, the TGI (SN12C renal) was 35.2 µM, the TGI (SNB-19 CNS) was 29.3 µM and the TGI (SNB-75 CNS) was 31.5 µM. It also gave a TGI (SR leukemia) of over 100 µM, a TGI (SW-620 colon) of 30.3 µM and a TGI (T-47D breast) of 32.4 µM. For the same compound, the TGI (TK-10 renal) was 38.4 µM, the TGI (U251 CNS) was 27.6 µM and the TGI (UACC-257 melanoma) was 32.1 µM. It also gave a TGI (UACC-62 melanoma) of 36.4 µM and a TGI (UO-31 renal) of 29.5 µM.
